Literature values in PubChem BioAssay AID1259409 (Chemical Carcinogenesis Research Information System (CCRIS), 2018).

Test system: rodent chemically induced tumor inhibition, incidence and multiplicity
Test: CCRIS tumor inhibitor studies

Which results are given for Cl?
tumour outcome (control, treated, inhibition, significance) (Carcinogen: 1,2-DIMETHYLHYDRAZINE, 540-73-8, Dose [Inhibitor]: 0, 5 G/L IN DRINKING WATER FOR DURATION OF STUDY BEGINNING 7 D PRIOR TO CARCINOGEN TREATMENT (STUDY DURATION: 8 MO), Route [Inhibitor]: ORAL, Species: RAT, Strain/Sex: BD6/MALE, Target Tissue: Type of Lesion: INTESTINE: TUMOR, Dose [Carcinogen]: 20 MG/KG BW 1/WK FOR 20 WK, Promoter: NONE USED): 100%, 100%, 0%, not significant; tumour outcome (control, treated, inhibition, significance) (Carcinogen: BRACKEN FERN, Dose [Inhibitor]: 20 MG/G DIET/D FOR 12 MO SIMULTANEOUS WITH CARCINOGEN (STUDY DURATION: 12 MO), Route [Inhibitor]: ORAL, Species: RAT, Strain/Sex: ALBINO/?, Target Tissue: Type of Lesion: INTESTINE: TUMOR, Dose [Carcinogen]: 0.33 G IN DIET/D FOR 12 MO, Promoter: NONE USED): 30/30 (100%), 16/23 (70%), 30%, p<0.01; tumour outcome (control, treated, inhibition, significance) (Carcinogen: BRACKEN FERN, Dose [Inhibitor]: 20 MG/G DIET/D FOR 12 MO SIMULTANEOUS WITH CARCINOGEN (STUDY DURATION: 12 MO), Route [Inhibitor]: ORAL, Species: RAT, Strain/Sex: ALBINO, Target Tissue: Type of Lesion: URINARY BLADDER: TUMOR, Dose [Carcinogen]: 0.33 G IN DIET/D FOR 12 MO, Promoter: NONE USED): 22/30 (73%), 4/23 (17%), 77%, p<0.001; tumour outcome (control, treated, inhibition, significance) (Carcinogen: N-METHYL-N'-NITRO-N-NITROSOGUANIDINE, 70-25-7, Dose [Inhibitor]: 0, 1% IN DRINKING WATER BEGINNING 1 WK POST CARCINOGEN TREATMENT AND CONTINUING FOR STUDY DURATION (STUDY DURATION: 52 W, Route [Inhibitor]: ORAL, Species: RAT, Strain/Sex: SHR/MALE, Target Tissue: Type of Lesion: STOMACH: ADENOCARCINOMA, Dose [Carcinogen]: 40 ML OF A 25 MG/ML SOLUTION 1/2 D IN DRINKING WATER FOR 25 WK): 65%, 20%, 69%, p<0.02; tumour outcome (control, treated, inhibition, significance) (Carcinogen: N-METHYL-N'-NITRO-N-NITROSOGUANIDINE, 70-25-7, Dose [Inhibitor]: 0, 1% IN DRINKING WATER BEGINNING 1 WK POST CARCINOGEN TREATMENT AND CONTINUING FOR STUDY DURATION (STUDY DURATION: 52 W, Route [Inhibitor]: ORAL, Species: RAT, Strain/Sex: WKR/MALE, Target Tissue: Type of Lesion: STOMACH: ADENOCARCINOMA, Dose [Carcinogen]: 40 ML OF A 25 MG/ML SOLUTION 1/2 D IN DRINKING WATER FOR 25 WK): 25%, 20%, 20%, not calculated; tumour outcome (control, treated, inhibition, significance) (Carcinogen: N-METHYL-N'-NITRO-N-NITROSOGUANIDINE, 70-25-7, Dose [Inhibitor]: 0, 1% IN DRINKING WATER FOR 27 WK BEGINNING POST CARCINOGEN DOSE (STUDY DURATION: 52 WK), Route [Inhibitor]: ORAL, Species: RAT, Strain/Sex: WISTAR/MALE, Target Tissue: Type of Lesion: STOMACH: TUMOR, Dose [Carcinogen]: 25 UG/ML IN DRINKING WATER FOR 25 WK, Promoter: DEOXYCORTICOSTERONE ACETATE, 56-47-3): 11/20 (55%), 3/18 (17%), 69%, p<0.05; tumour outcome (control, treated, inhibition, significance) (Carcinogen: N-METHYL-N'-NITRO-N-NITROSOGUANIDINE, 70-25-7, Dose [Inhibitor]: 0, 4% IN DIET FOR 25 WK BEGINNING 1 WK POST CARCINOGEN TREATMENT (STUDY DURATION: 52 WK), Route [Inhibitor]: ORAL, Species: RAT, Strain/Sex: WISTAR/MALE, Target Tissue: Type of Lesion: STOMACH: ADENOCARCINOMA, Dose [Carcinogen]: 25 UG/ML IN DRINKING WATER FOR 25 WK, Promoter: SODIUM CHLORIDE, 7647-14-5): 17/19 (89%), 10/18 (56%), 37%, not significant; tumour outcome (control, treated, inhibition, significance) (Carcinogen: N-METHYL-N'-NITRO-N-NITROSOGUANIDINE, 70-25-7, Dose [Inhibitor]: 0, 8% IN DIET FOR 25 WK BEGINNING 1 WK POST CARCINOGEN TREATMENT (STUDY DURATION: 52 WK), Route [Inhibitor]: ORAL, Species: RAT, Strain/Sex: WISTAR/MALE, Target Tissue: Type of Lesion: STOMACH: ADENOCARCINOMA, Dose [Carcinogen]: 25 UG/ML IN DRINKING WATER FOR 25 WK, Promoter: SODIUM CHLORIDE, 7647-14-5): 17/19 (89%), 5/19 (26%), 71%, p<0.01

Which results are given for CCCCc1cccs1?
tumour outcome (control, treated, inhibition, significance) (Carcinogen: BENZO[A]PYRENE, 50-32-8, Dose [Inhibitor]: 0, 45 UMOL IN 0.2 ML COTTONSEED OIL 3/WK FOR 4 WK BEGINNING 1 DAY PRIOR TO FIRST CARCINOGEN DOSE AND TERMINATING 1 DAY A, Route [Inhibitor]: GAVAGE, Species: MOUSE, Strain/Sex: STRAIN-A/FEMALE, Target Tissue: Type of Lesion: FORESTOMACH: TUMOR, Dose [Carcinogen]: 1 MG 2/WK FOR 4 WK, Promoter: NONE USED): 14/17 (82%), 9/18 (50%), 39%, p<0.05; tumour outcome (control, treated, inhibition, significance) (Carcinogen: BENZO[A]PYRENE, 50-32-8, Dose [Inhibitor]: 0, 45 UMOL IN 0.2 ML COTTONSEED OIL 3/WK FOR 4 WK BEGINNING 1 DAY PRIOR TO FIRST CARCINOGEN DOSE AND TERMINATING 1 DAY A, Route [Inhibitor]: GAVAGE, Species: MOUSE, Strain/Sex: STRAIN-A/FEMALE, Target Tissue: Type of Lesion: LUNG: TUMOR, Dose [Carcinogen]: 1 MG 2/WK FOR 4 WK, Promoter: NONE USED): 17/17 (100%), 18/18 (100%), 0%, not significant; tumour outcome (control, treated, inhibition, significance) (Carcinogen: BENZO[A]PYRENE, 50-32-8, Dose [Inhibitor]: 0, 90 UMOL IN 0.2 ML COTTONSEED OIL 3/WK FOR 4 WK BEGINNING 1 DAY PRIOR TO FIRST CARCINOGEN DOSE AND TERMINATING 1 DAY A, Route [Inhibitor]: GAVAGE, Species: MOUSE, Strain/Sex: STRAIN-A/FEMALE, Target Tissue: Type of Lesion: FORESTOMACH: TUMOR, Dose [Carcinogen]: 1 MG 2/WK FOR 4 WK, Promoter: NONE USED): 14/17 (82%), 9/13 (69%), 16%, not significant; tumour outcome (control, treated, inhibition, significance) (Carcinogen: BENZO[A]PYRENE, 50-32-8, Dose [Inhibitor]: 0, 90 UMOL IN 0.2 ML COTTONSEED OIL 3/WK FOR 4 WK BEGINNING 1 DAY PRIOR TO FIRST CARCINOGEN DOSE AND TERMINATING 1 DAY A, Route [Inhibitor]: GAVAGE, Species: MOUSE, Strain/Sex: STRAIN-A/FEMALE, Target Tissue: Type of Lesion: LUNG: TUMOR, Dose [Carcinogen]: 1 MG 2/WK FOR 4 WK, Promoter: NONE USED): 17/17 (100%), 13/13 (100%), 0%, not significant

For CCCCCCCc1ccco1, which “tumour outcome (control, treated, inhibition, significance)” value (Carcinogen: BENZO[A]PYRENE, 50-32-8, Dose [Inhibitor]: 0, 25 UMOL IN 0.2 ML COTTONSEED OIL 3/WK FOR 4 WK BEGINNING 1 DAY PRIOR TO FIRST CARCINOGEN DOSE AND TERMINATING 1 DAY A, Route [Inhibitor]: GAVAGE, Species: MOUSE, Strain/Sex: STRAIN-A/FEMALE, Target Tissue: Type of Lesion: FORESTOMACH: TUMOR, Dose [Carcinogen]: 1 MG 2/WK FOR 4 WK, Promoter: NONE USED) is on record?
Its value is 14/17 (82%), 10/15 (66%), 20%, not significant.

What about the “tumour outcome (control, treated, inhibition, significance)” value (Carcinogen: BENZO[A]PYRENE, 50-32-8, Dose [Inhibitor]: 0, 25 UMOL IN 0.2 ML COTTONSEED OIL 3/WK FOR 4 WK BEGINNING 1 DAY PRIOR TO FIRST CARCINOGEN DOSE AND TERMINATING 1 DAY A, Route [Inhibitor]: GAVAGE, Species: MOUSE, Strain/Sex: STRAIN-A/FEMALE, Target Tissue: Type of Lesion: LUNG: TUMOR, Dose [Carcinogen]: 1 MG 2/WK FOR 4 WK, Promoter: NONE USED) of the same compound?
The value was 17/17 (100%), 15/15 (100%), 0%, not significant.

And the “tumour outcome (control, treated, inhibition, significance)” value (Carcinogen: BENZO[A]PYRENE, 50-32-8, Dose [Inhibitor]: 0, 50 UMOL IN 0.2 ML COTTONSEED OIL 3/WK FOR 4 WK BEGINNING 1 DAY PRIOR TO FIRST CARCINOGEN DOSE AND TERMINATING 1 DAY A, Route [Inhibitor]: GAVAGE, Species: MOUSE, Strain/Sex: STRAIN-A/FEMALE, Target Tissue: Type of Lesion: FORESTOMACH: TUMOR, Dose [Carcinogen]: 1 MG 2/WK FOR 4 WK, Promoter: NONE USED)?
The value was 14/17 (82%), 9/12 (75%), 8%, not significant.

What about the “tumour outcome (control, treated, inhibition, significance)” value (Carcinogen: BENZO[A]PYRENE, 50-32-8, Dose [Inhibitor]: 0, 50 UMOL IN 0.2 ML COTTONSEED OIL 3/WK FOR 4 WK BEGINNING 1 DAY PRIOR TO FIRST CARCINOGEN DOSE AND TERMINATING 1 DAY A, Route [Inhibitor]: GAVAGE, Species: MOUSE, Strain/Sex: STRAIN-A/FEMALE, Target Tissue: Type of Lesion: LUNG: TUMOR, Dose [Carcinogen]: 1 MG 2/WK FOR 4 WK, Promoter: NONE USED) of the same compound?
The value was 17/17 (100%), 12/12 (100%), 0%, not significant.

Which “tumour outcome (control, treated, inhibition, significance)” value (Carcinogen: URETHANE, 51-79-6, Dose [Inhibitor]: 0.05 UMOL/G BW GIVEN AT 6 HR INTERVALS DURING THE PERIOD OF 0 TO 36 HR AFTER CARCINOGEN TREATMENT FOLLOWED BY 5 MO OBSER, Route [Inhibitor]: INTRAPERITONEAL, Species: MOUSE, Strain/Sex: ICR/FEMALE, Target Tissue: Type of Lesion: LUNG: PAPILLARY ADENOMA, Dose [Carcinogen]: 0.1 MG/G BW ONCE, Promoter: NONE USED) does the source give for Cn1c(=O)[nH]c2nc[nH]c2c1=O here?
The value was 31/59 (53%), 18/36 (50%), 6%, not significant.

And the “tumour outcome (control, treated, inhibition, significance)” value (Carcinogen: URETHANE, 51-79-6, Dose [Inhibitor]: 0.25 UMOL/G BW 1/D DURING THE PERIOD OF 5 TO 9 D AFTER CARCINOGEN TREATMENT FOLLOWED BY OBSERVATION PERIOD UNTIL END OF, Route [Inhibitor]: INTRAPERITONEAL, Species: MOUSE, Strain/Sex: ICR/FEMALE, Target Tissue: Type of Lesion: LUNG: PAPILLARY ADENOMA, Dose [Carcinogen]: 1 MG/G BW ONCE, Promoter: NONE USED)?
Its value is 49/53 (93%), 39/43 (91%), 2%, not significant.
